Data taken from patent US20250154112A1, “A PREPARATION OF QUINAZOLINEDIONES AND USE THEREOF” (COUNCIL OF SCIENTIFIC AND INDUSTRIAL RESEARCH AN INDIAN …, priority 2021, published 2025).
pEC50: −log10 of the molar value. ≈ marks a conversion by molar mass, not a printed value.

Columns and labels:
[1] = test system: ATGL; assay: Western blot of ATGL level in HepG2 cells after compound treatment; type: cell-based; settings: 24 hours; for ATGL level (Western Blot): 50 nM to 5 μM dose dependent, with respect to control; for induction of ATGL (Western Blot): 5 μM
Method: (§1) HepG2 cells were treated with the compounds 5, 8, 11, 59, 62, 91, 94 (50 nM, 100 nM, 200 nM, 500 nM, 1 μM and 5 μM for dose dependent assays) for 24 hours. After removing media from the cells, the wells were washed with 1×PBS twice to remove any remnant media. Cells were then lysed in lysis buffer containing 50 mM Tris-HCl (pH 7.4), 100 mM NaCl, 1 mM EDTA, 1 mM EGTA, 1% Triton X-100 and protease inhibitor cocktail (Millipore, Billierica, MA, USA). Following centrifugation at 20,000 g for 20 minutes, the protein solution was extracted from the cells. Protein was estimated using Bradford assay. Bradford's reagent (BioRad) was diluted in 1:4 ratio in double distilled water. 2 μl of protein sample was added to 100 μl of the reagent and absorbance was measured at 595 nm. 30 μg of protein was diluted in lysis buffer. 1X loading buffer diluted from 5X stock containing 250 mM Tris-HCl (pH 6.8), 10% SDS, 50% glycerol, 0.1% bromophenol Blue and 10% β-mercaptoethanol was added. The protein samples were then heated at 95° C. for 10 minutes, cooled and centrifuged at 12,000 g for 2 minutes prior to loading.
(§2) For western blotting, the proteins were resolved in 10% SDS PAGE (discontinuous buffer system). 1X running buffer containing SDS, Tris Base and Glycine was used to run the gel at 80V for approximately 2 hours. Transfer was done using PVDF membrane (Millipore) having pore size of 0.45 μm. 1X transfer buffer containing Tris-Base, Glycine and 20% methanol was used for wet transfer. Transfer was done at 90V for 3 hours. Following transfer, the PVDF membrane containing the proteins were washed in 1×PBST comprising of 1×PBS and 1% Tween 20 (Sigma Aldrich). The membrane was then incubated for 1 hour at room temperature in 5% skim milk powder to block the non-specific sites. Following multiple washes with 1×PBST to wash away any remaining blocking buffer, the required primary antibody (COP1 [BethylLaboraties], ATGL [Cell Signalling Technology] or Actin[Cell Signalling Technology]) prepared with 1×PBST, 1% Bovine Serum Albumin and 0.04% Sodium Azide was added to the membrane and incubated overnight at 4° C. The next day, the membrane was again washed multiple times with 1×PBST to remove any unbound primary antibody. The membrane was then incubated with goat anti-rabbit secondary antibody (Genei) for 1 hour at room temperature and washed again for multiple times with 1×PBST. The membrane was then developed using Clarity™ ECL Western Blotting Substrate (BioRad) and viewed in ChemiDoc (BioRad).
as §1, with “62, 65,” for “62,”, “at” for “(50 nM, 100 nM, 200 nM, 500 nM, 1 μM and”, “μM” for “μM for dose dependent assays)”, “cocktail 1” for “cocktail”

[2] = target: T1, COP1 (Homo sapiens, UniProt Q8NHY2); assay: Western blot of COP1 level in HepG2 cells after compound treatment; type: cell-based; settings: 5 μM, 24 hours
T1 construct: endogenous in cells; host or cells: HepG2
Method: as §1, with “62, 65,” for “62,”, “at” for “(50 nM, 100 nM, 200 nM, 500 nM, 1 μM and”, “μM” for “μM for dose dependent assays)”, “cocktail 1” for “cocktail”
as §2

[3] = test system: ATGL; assay: Fold change in ATGL by densitometric analysis; type: cell-based; settings: fold change of ATGL with respect to control, normalized with actin
Method: Densitimetric analysis was performed by image J to calculate the fold change of ATGL with respect to control. The values were normalized with actin.

[4] = Determination of EC50 (in-vitro)
[5] = Lipophilicity assay (octanol/buffer Log D); type: physicochemical; settings: pH 7.4, n-octanol/sodium phosphate buffer
Method: 1.56 g NaH2PO4·2H2O was dissolved in 0.5 L water in a 1 L beaker. After adjusting pH to 7.4 using NaOH solution, the volume was made up to 1 L. Equal volumes of sodium phosphate buffer (10 mM, pH 7.4) and n-octanol were added to a separation funnel and mixed thoroughly by shaking and inverting the funnel several times. The two layers were allowed to separate for overnight and then dispensed in two separate glass bottles. 10 mM stock solution was prepared in 100% DMSO and stored at 4° C. 495 μL of organic phase (1-octanol) was added to each well of a 2 mL deep well plate, followed by 495 μL of buffer and 10 μL of test substance was added. The plate was incubated for 3 hrs at room temperature on a plate shaker at 500 rpm. After incubation, the samples were allowed to equilibrate for 20 min and then centrifuged at 4000 rpm for 30 min for complete phase separation and analysed by LC-UV. Log D=Log (area of octanol/area of buffer)

[6] = Plasma stability assay; type: in vitro ADME; settings: 1 μM, 37° C.
Method: 1 mM Stock of test compound was prepared from 10 mM initial stock solution of compounds by diluting 10 μL of 10 mM stock with 90 μL of DMSO. Then 10 μL of 1 mM stock was diluted with 90 μL of DMSO to give 100 μM concentration. The frozen plasma was thawed at room temperature and centrifuged at 1400 rpm at 4° C., for 15 minutes. Approximately 90% of the clear supernatant fraction was transferred to a separate tube and was used for the assay. Final working stock of 1 μM was prepared by diluting 3 μL of 100 μM with 297 μL of plasma. Plasma containing the test compound was incubated for 120 min at 37° C. in shaker with 500 rpm. 50 μL of aliquot of sample at 0, 15, 30, 60 and 120 minutes were precipitated with 150 μL of acetonitrile containing internal standard and centrifuged at 4000 rpm at 4° C. for 20 minutes. 120 μL of supernatant was diluted with 120 μL of water and analysed by LC-MS/MS.

[7] = Metabolic stability using human liver microsomes (HLM); type: in vitro ADME
Method: 1 mM stock solution of test compound was prepared in DMSO and diluted with Acetonitrile:Water (1:1) to get a 100 μM working concentration. 100 mL of Milli Q water was added to K2HPO4 (1.398 g) and KH2PO4 (0.27 g) to get final pH 7.4 solution of potassium phosphate buffer. […] The above mixture was pre incubated for 15 minutes at 37° C. After pre incubation, 32.5 μL of the mixture was added to 17.5 μL of buffer, this was incubated for 60 minutes at 37° C. [60 min Without Cofactor (NADPH)]. 16.25 μL of the pre incubated mixture and 8.75 μL of cofactor was added to 150 μL of acetonitrile containing internal standard [0 min Sample]. 62 μL of cofactor was added to remaining pre incubation mixture [Incubation mixture]. 25 μL of incubation mixture at 0, 5, 15, 30, 60 min and 60 min without cofactor were precipitated with 150 μL of acetonitrile containing internal standard, vortexed and centrifuged at 4000 rpm at 4° C. for 20 minutes. 120 μL of supernatant was diluted with 120 μL of water and analyzed by LC-MS/MS [sample preparation].

[8] = Kinetic solubility; type: physicochemical; settings: pH 7.4 phosphate buffer (PBS), aqueous buffer, kinetic from dmso stock, room temperature, 1.0% DMSO
Method: PBS sachet was dissolved in 0.9 L of Milli Q water and pH was adjusted to 7.4. Final volume was made up to 1 L with the water and stored at ambient temperature 21-25° C. […] 4 μL from the 50 mM stock solution were added to deep well plate containing 396 μL of pH 7.4 phosphate buffer, mixed and incubated for 24 hours at room temperature with constant mixing at 300 rpm. The plate was sealed well during the incubation process. After incubation, the samples were centrifuged for 20 min at 4000 rpm. The supernatant was analysed by HPLC-UV. The DMSO content in the sample was 1.0%. The final concentration of the compound in deep well plate was 500 μM.

T1 sequence (Q8NHY2 whole entry): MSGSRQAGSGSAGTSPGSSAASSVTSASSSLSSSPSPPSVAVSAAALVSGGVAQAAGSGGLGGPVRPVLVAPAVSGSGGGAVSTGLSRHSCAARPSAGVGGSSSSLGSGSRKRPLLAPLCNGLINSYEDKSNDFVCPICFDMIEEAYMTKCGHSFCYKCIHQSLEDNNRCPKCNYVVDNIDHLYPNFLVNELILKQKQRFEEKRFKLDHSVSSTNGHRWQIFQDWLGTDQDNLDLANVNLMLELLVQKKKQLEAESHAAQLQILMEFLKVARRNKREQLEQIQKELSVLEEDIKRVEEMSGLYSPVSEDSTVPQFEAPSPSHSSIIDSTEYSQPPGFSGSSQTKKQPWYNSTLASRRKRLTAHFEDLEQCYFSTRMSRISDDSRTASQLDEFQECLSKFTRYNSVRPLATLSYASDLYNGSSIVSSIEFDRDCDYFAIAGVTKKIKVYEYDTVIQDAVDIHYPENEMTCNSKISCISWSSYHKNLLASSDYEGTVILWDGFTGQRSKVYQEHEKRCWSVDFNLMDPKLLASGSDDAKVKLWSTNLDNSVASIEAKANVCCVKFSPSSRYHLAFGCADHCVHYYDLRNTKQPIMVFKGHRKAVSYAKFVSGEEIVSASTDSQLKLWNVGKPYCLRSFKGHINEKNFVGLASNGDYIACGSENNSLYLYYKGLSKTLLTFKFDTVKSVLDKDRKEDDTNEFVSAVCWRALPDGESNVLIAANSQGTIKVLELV

SMILES | stabilization of COP1 (Western Blot) [2] | pEC50 [4] | LogD @ pH 7.4 [5] | Mean % remaining at 2 hrs in human Plasma [6] [%] | % QH (Well stirred model) [7] [%] | solubility kinetic at 24 hours [8] [µg/mL] | logD [5] | ATGL level (Western Blot) [1] | induction of ATGL (Western Blot) [1] | Fold change [3]
COCCn1c(=O)c2cc(NC(=O)Nc3cccc(C(C)=O)c3)ccc2n(C)c1=O [Compound 8, 1-(3-acetylphenyl)-3-(3-(2-methoxyethyl)-1-methyl-2,4-dioxo-1,2,3,4-tetrahydroquinazolin-6-yl)urea] | stabilize the COP1 | 7.75 | – | – | – | – | – | increased ATGL level | ability to induce ATGL | 1.34
COCCn1c(=O)c2cc(NC(=O)Nc3cccc(C(C)=O)c3)ccc2n(C(C)C)c1=O [Compound 11, 1-(3-acetylphenyl)-3-(1-isopropyl-3-(2-methoxyethyl)-2,4-dioxo-1,2,3,4-tetrahydroquinazolin-6-yl)urea] | stabilize the COP1 | 7.00 | 2.67 | 80.80 | 40.30 | 2.8 (≈ 6.39 µM) | – | increased ATGL level | ability to induce ATGL | 1.25
COCCc1ccc(OCC(O)CNC(C)C)cc1 (stereo not shown) [Metroprolol, reference compound] | – | – | −0.04 | – | – | – | – | – | – | –
CC(C)[N+](C)(CCOC(=O)C1c2ccccc2Oc2ccccc21)C(C)C [Propantheline, reference compound] | – | – | – | 1.70 | – | – | – | – | – | –

More lines, main results first:

stabilization of COP1 (Western Blot) [2] | pEC50 [4] | LogD @ pH 7.4 [5] | Mean % remaining at 2 hrs in human Plasma [6] [%] | % QH (Well stirred model) [7] [%] | solubility kinetic at 24 hours [8] [µg/mL] | logD [5] | SMILES | ATGL level (Western Blot) [1] | induction of ATGL (Western Blot) [1] | Fold change [3]
stabilize the COP1 | – | – | – | – | – | – | COCCn1c(=O)c2cc(NC(=O)Nc3cccc(C(C)=O)c3)ccc2n(CCCN2CCCCC2)c1=O [Compound 91, 1-(3-acetylphenyl)-3-(3-(2-methoxyethyl)-2,4-dioxo-1-(3-(piperidin-1-yl)propyl)-1,2,3,4-tetrahydroquinazolin-6-yl)urea] | increased ATGL level | ability to induce ATGL | 1.17
stabilize the COP1 | 6.68 | 2.58 | 32.80 | 17.46 | 124 (≈ 252 µM) | – | COCCn1c(=O)c2cc(NC(=O)Nc3cccc(C(C)=O)c3)ccc2n(CCN2CCCC2)c1=O [Compound 59, 1-(3-acetylphenyl)-3-(3-(2-methoxyethyl)-2,4-dioxo-1-(2-(pyrrolidin-1-yl)ethyl)-1,2,3,4-tetrahydroquinazolin-6-yl)urea] | increased ATGL level | ability to induce ATGL | 1.18
stabilize the COP1 | 7.30 | – | 48.20 | 62.0 | 20.8 (≈ 40.8 µM) | 2.08 | COCCn1c(=O)c2cc(NC(=O)Nc3cccc(C(C)=O)c3)ccc2n(CCN2CCOCC2)c1=O [Compound 65, 1-(3-acetylphenyl)-3-(3-(2-methoxyethyl)-1-(2-morpholinoethyl)-2,4-dioxo-1,2,3,4-tetrahydroquinazolin-6-yl)urea] | – | ability to induce ATGL | 1.44
